Activity calls are given as the source filed them. No cut-off for these calls is given here.

Data set [1] has as its target T1, Lysine-specific demethylase 4D (Homo sapiens) (UniProt Q6B0I6).
T1 sequence (whole entry): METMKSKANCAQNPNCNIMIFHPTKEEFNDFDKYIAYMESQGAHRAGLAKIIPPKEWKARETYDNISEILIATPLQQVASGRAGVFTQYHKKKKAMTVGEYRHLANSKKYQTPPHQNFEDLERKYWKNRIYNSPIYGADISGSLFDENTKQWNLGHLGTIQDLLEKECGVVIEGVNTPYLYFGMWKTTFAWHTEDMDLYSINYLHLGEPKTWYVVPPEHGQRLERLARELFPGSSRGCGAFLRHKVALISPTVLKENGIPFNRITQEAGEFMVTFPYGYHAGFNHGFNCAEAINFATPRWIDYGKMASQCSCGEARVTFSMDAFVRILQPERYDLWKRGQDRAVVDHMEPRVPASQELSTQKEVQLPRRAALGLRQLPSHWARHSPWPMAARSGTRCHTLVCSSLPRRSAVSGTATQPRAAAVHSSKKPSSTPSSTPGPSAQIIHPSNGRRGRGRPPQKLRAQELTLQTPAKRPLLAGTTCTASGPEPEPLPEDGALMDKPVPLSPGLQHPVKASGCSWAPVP
The data set is described as follows: Inhibition of purified recombinant KDM4D (1 to 350 aa) (unknown origin) expressed in Escherichia coli using H3K9me3 peptide as substrate after 30 mins by FDH-coupled assay.

A short description of data set [2]: Cytotoxicity against human PNT2 cells at 5 to 20 uM measured over 6 days by MTT assay. Format: cell-based. The settings on record: pnt2, 144 h. (Tetrazolium dyes change colour on reduction, which living cells bring about.)
For data set [3], the target named is T2, Lysine-specific demethylase 4E (Homo sapiens) (UniProt B2RXH2).
T2 sequence (whole entry): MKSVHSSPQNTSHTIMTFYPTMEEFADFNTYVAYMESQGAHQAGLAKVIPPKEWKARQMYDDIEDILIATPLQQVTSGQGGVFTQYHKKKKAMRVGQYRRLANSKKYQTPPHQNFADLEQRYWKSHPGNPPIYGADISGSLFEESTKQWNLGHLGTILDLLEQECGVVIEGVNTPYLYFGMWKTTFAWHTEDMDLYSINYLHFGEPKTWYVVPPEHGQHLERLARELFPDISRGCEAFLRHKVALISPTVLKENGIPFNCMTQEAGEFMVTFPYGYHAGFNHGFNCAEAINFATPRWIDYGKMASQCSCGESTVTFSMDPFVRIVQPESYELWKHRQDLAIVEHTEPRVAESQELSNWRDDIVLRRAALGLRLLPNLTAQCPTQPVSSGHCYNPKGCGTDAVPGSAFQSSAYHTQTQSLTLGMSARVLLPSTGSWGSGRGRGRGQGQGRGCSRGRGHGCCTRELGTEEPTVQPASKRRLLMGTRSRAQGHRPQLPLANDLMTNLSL
The data set is described as follows: Inhibition of purified recombinant KDM4E (1 to 347 aa) (unknown origin) expressed in Escherichia coli using H3K9me3 peptide as substrate after 30 mins by FDH-coupled assay.

Another data set deals with LNCaP. The data set is described as follows: Cytotoxicity against human LNCAP cells after 3 days by MTT assay. Type of data set: functional, cell-based. The settings on record: 72 h.

With `O=[N+]([O-])c1cc([N+](=O)[O-])c(/C=C/c2ccc(Cl)c(Cl)c2)cc1/C=C/c1ccc(Cl)c(Cl)c1`, the inhibition result in data set [1] and in data set [3] was “inactive” in each case. The Activity entry in data set [2] is given as “Non-toxic”.

What is called CC50 is the concentration at which the toxic effect on the cells reaches its halfway point. Low readings indicate harm at low concentration, high ones better tolerance by the cells. For the molecule `O=C(O)c1ccnc(C(=O)O)c1`, the inhibition entry in data set [1] and in data set [3] was “Active” each time. Besides, in the data set on LNCaP, the 50% cytotoxic concentration (CC50) stood at 589 µM.

Values taken from ChEMBL document CHEMBL3352546, “KDM4B as a target for prostate cancer: structural analysis and selective inhibition by a novel inhibitor” (J Med Chem, 2014).
